According to patent US9346812B2, “Substituted pyrrolopyrimidine compounds, compositions thereof, and methods of treatment therewith” (Signal Pharmaceutical LLC, priority 2013, dated 2016):

Tested on: CAL51 cell proliferation
Assay: Cell Titer Glo Proliferation Assay (CAL51)
Assay type: cell-based, human
Conditions: Homo sapiens, CAL-51; CAL51 cell proliferation, 72 h, Cell Titer Glo luminescence; read-out: Act. Level
Protocol: Cell Titer Glo Proliferation Assay. Triple negative breast cancer cell line CAL51 was purchased from DSMZ. […] Allcell lines were maintained in growth media consisting of 90% high glucose Dulbecco's Modified Eagle Medium or RPMI1640 (Invitrogen), 10% fetal bovine serum (Hyclone), and 2 mM L-glutamine (Invitrogen). […] After overnight culture, compound stock (30 mM) was diluted serially in DMSO, further diluted in growth media, and was added to each well as a 10× concentrated solution in a volume of 11 μL, mixed, and allowed to incubate with cells. The compound vehicle (DMSO) was maintained at a final concentration of 0.2% in all wells. After 72 h, 100 μL of Cell Titer Glo solution (Promega) was added to each well of the 96-well plate. The plate was placed on a shaker for 2 minutes. After 10 minutes incubation, the luminescence signal was detected with Envision microplate reader (Perkin Elmer).

Row | Compound | IC50 [nM]
1 | CNC(=O)c1ccc(Nc2nc(OC3CCCC3)c3c(-c4cncc(O)c4)c[nH]c3n2)c(OC)c1 [Example 51, 4-(4-(cyclopentyloxy)-5-(5-hydroxypyridin-3-yl)-7H-pyrrolo [2,3-d]pyrimidin-2-ylamino)-3-methoxy-N-methylbenzamide] | < 100
2 | COc1cc(CN)ccc1Nc1nc(OC2CCCC2)c2c(-c3ccc(O)cc3)c[nH]c2n1 [Example 52, 4-(2-(4-(aminomethyl)-2-methoxyphenylamino)-4-(cyclopentyloxy)-7H-pyrrolo[2,3-d]pyrimidin-5-yl)phenol] | 100 to 400
3 | COc1nc(Nc2ccc(C(=O)N(C)C)cc2Cl)nc2[nH]cc(-c3ccc(-c4nnc[nH]4)cc3)c12 [Example 53, 4-(5-(4-(4H-1,2,4-triazol-3-yl)phenyl)-4-methoxy-7H-pyrrolo [2,3-d]pyrimidin-2-ylamino)-3-chloro-N,N-dimethylbenzamide] | 100 to 400
4 | CNC(=O)c1ccc(Nc2nc(OC3CCCC3)c3c(-c4ccc(OC)c(F)c4)c[nH]c3n2)c(OC)c1 [Example 54, 4-(4-(cyclopentyloxy)-5-(3-fluoro-4-methoxyphenyl)-7H-pyrrolo[2,3-d]pyrimidin-2-ylamino)-3-methoxy-N-methylbenzamide] | 100 to 400
5 | CNC(=O)c1ccc(Nc2nc(OC3CCCC3)c3c(-c4cccc(NC(C)=O)c4)c[nH]c3n2)c(OC)c1 [Example 56, 4-(5-(3-acetamidophenyl)-4-(cyclopentyloxy)-7H-pyrrolo[2,3-d]pyrimidin-2-ylamino)-3-methoxy-N-methylbenzamide] | < 100
6 | CNC(=O)c1ccc(Nc2nc(OC3CCCC3)c3c(-c4cccc(NS(C)(=O)=O)c4)c[nH]c3n2)c(OC)c1 [Example 57, 4-(4-(cyclopentyloxy)-5-(3-(methylsulfonamido)phenyl)-7H-pyrrolo[2,3-d]pyrimidin-2-ylamino)-3-methoxy-N-methylbenzamide] | 100 to 400
7 | CNC(=O)c1ccc(Nc2nc(OC3CCCC3)c3c(-c4cccnc4)c[nH]c3n2)c(OC)c1 [Example 58, 4-(4-(cyclopentyloxy)-5-(pyridin-3-yl)-7H-pyrrolo[2,3-d]pyrimidin-2-ylamino)-3-methoxy-N-methylbenzamide] | < 100
8 | CNC(=O)c1cccc(-c2c[nH]c3nc(Nc4ccc(C(=O)NC)cc4OC)nc(OC4CCCC4)c23)c1 [Example 59, 4-(4-(cyclopentyloxy)-5-(3-(methylcarbamoyl)phenyl)-7H-pyrrolo[2,3-d]pyrimidin-2-ylamino)-3-methoxy-N-methylbenzamide] | 100 to 400
9 | CNC(=O)c1ccc(Nc2nc(OC3CCCC3)c3c(-c4cccc(OC)c4)c[nH]c3n2)c(OC)c1 [Example 60, 4-(4-(cyclopentyloxy)-5-(3-methoxyphenyl)-7H-pyrrolo[2,3-d]pyrimidin-2-ylamino)-3-methoxy-N-methylbenzamide] | 100 to 400
10 | CNC(=O)c1ccc(Nc2nc(OC3CCCC3)c3c(-c4ccc(S(C)(=O)=O)cc4)c[nH]c3n2)c(OC)c1 [Example 61, 4-(4-(cyclopentyloxy)-5-(4-(methyl-sulfonyl)phenyl)-7H-pyrrolo[2,3-d]pyrimidin-2-ylamino)-3-methoxy-N-methylbenzamide] | < 100
11 | CNC(=O)c1ccc(Nc2nc(OC3CCCC3)c3c(-c4ccc(NC(C)=O)cc4)c[nH]c3n2)c(OC)c1 [Example 62, 4-(5-(4-acetamidophenyl)-4-(cyclopentyloxy)-7H-pyrrolo[2,3-d]pyrimidin-2-ylamino)-3-methoxy-N-methylbenzamide] | < 100
12 | CNC(=O)c1ccc(Nc2nc(OC3CCCC3)c3c(-c4cccc(S(C)(=O)=O)c4)c[nH]c3n2)c(OC)c1 [Example 63, 4-(4-(cyclopentyloxy)-5-(3-(methyl-sulfonyl)phenyl)-7H-pyrrolo[2,3-d]pyrimidin-2-ylamino)-3-methoxy-N-methylbenzamide] | < 100
13 | CNC(=O)c1ccc(Nc2nc(OC3CCCC3)c3c(-c4ccc(OC)c(OC)c4)c[nH]c3n2)c(OC)c1 [Example 64, 4-(4-(cyclopentyloxy)-5-(3,4-dimethoxyphenyl)-7H-pyrrolo[2,3-d]pyrimidin-2-ylamino)-3-methoxy-N-methylbenzamide] | 100 to 400
14 | CNC(=O)c1ccc(Nc2nc(OC3CCCC3)c3c(-c4cccc(N)c4)c[nH]c3n2)c(OC)c1 [Example 65, 4-(5-(3-aminophenyl)-4-(cyclopentyloxy)-7H-pyrrolo[2,3-d]pyrimidin-2-ylamino)-3-methoxy-N-methylbenzamide] | < 100
15 | CNC(=O)c1ccc(Nc2nc(OC3CCCC3)c3c(-c4ccncc4)c[nH]c3n2)c(OC)c1 [Example 66, 4-(4-(cyclopentyloxy)-5-(pyridin-4-yl)-7H-pyrrolo[2,3-d]pyrimidin-2-ylamino)-3-methoxy-N-methylbenzamide] | < 100
16 | COc1nc(Nc2ccc(C(=O)N3CCOCC3)cc2Cl)nc2[nH]cc(-c3ccc(-c4nnc[nH]4)cc3)c12 [Example 68, (4-(5-(4-(4H-1,2,4-triazol-3-yl)phenyl)-4-methoxy-7H-pyrrolo [2,3-d]pyrimidin-2-ylamino)-3-chlorophenyl)(morpholino) methanone] | 100 to 400
17 | Cc1nc2ccc(-c3c[nH]c4nc(Nc5ccc(C(=O)N(C)C)cc5C)nc(NC5CCOCC5)c34)cc2o1 [Example 69, N,N,3-trimethyl-4-(5-(2-methylbenzo[d]oxazol-6-yl)-4-(tetrahydro-2H-pyran-4-ylamino)-7H-pyrrolo[2,3-d]pyrimidin-2-ylamino)benzamide] | 100 to 400
18 | Cc1nc2ccc(-c3c[nH]c4nc(Nc5ccc(C(=O)N(C)C)cc5C)nc(OC5CCOCC5)c34)cc2o1 [Example 70, N,N,3-trimethyl-4-(5-(2-methylbenzo[d]oxazol-6-yl)-4-(tetrahydro-2H-pyran-4-yloxy)-7H-pyrrolo[2,3-d]pyrimidin-2-ylamino)benzamide] | 100 to 400
19 | COc1nc(Nc2ccc(C(=O)N(C)C)cc2Cl)nc2[nH]cc(-c3ccc4[nH]c(N)nc4c3)c12 [Example 71, 4-(5-(2-amino-1H-benzo[d]imidazol-5-yl)-4-methoxy-7H-pyrrolo[2,3-d]pyrimidin-2-ylamino)-3-chloro-N,N-dimethylbenzamide] | 100 to 400
20 | CNc1nc(Nc2ccc(C(=O)N(C)C)cc2Cl)nc2[nH]cc(-c3ccc(-c4nnc[nH]4)cc3)c12 [Example 72, 4-(5-(4-(4H-1,2,4-triazol-3-yl)phenyl)-4-(methylamino)-7H-pyrrolo[2,3-d]pyrimidin-2-ylamino)-3-chloro-N,N-dimethylbenzamide] | 400 to 1000
21 | COc1nc(Nc2ccc(C(=O)N(C)C)cc2C)nc2[nH]cc(-c3ccc4nc(C)oc4c3)c12 [Example 73, 4-(4-methoxy-5-(2-methylbenzo[d]oxazol-6-yl)-7H-pyrrolo[2,3-d]pyrimidin-2-ylamino)-N,N,3-trimethylbenzamide] | 1000 to 10000
22 | Cc1nc2ccc(-c3c[nH]c4nc(Nc5ccc(C(=O)N6CCNCC6)cc5C)nc(NC5CCOCC5)c34)cc2o1 [Example 74, (3-methyl-4-(5-(2-methylbenzo[d]oxazol-6-yl)-4-(tetrahydro-2H-pyran-4-ylamino)-7H-pyrrolo [2,3-d]pyrimidin-2-ylamino)phenyl) (piperazin-1-yl)methanone] | 100 to 400
23 | CNC(=O)c1ccc(Nc2nc(OC3CCCC3)c3c(-c4ccc(N(C)C)cc4)c[nH]c3n2)c(OC)c1 [Example 75, 4-(4-(cyclopentyloxy)-5-(4-(di-methylamino)phenyl)-7H-pyrrolo [2,3-d]pyrimidin-2-ylamino)-3-methoxy-N-methylbenzamide] | < 100
24 | CNC(=O)c1ccc(Nc2nc(OC3CCCC3)c3c(-c4ccc(OC)cc4)c[nH]c3n2)c(OC)c1 [Example 76, 4-(4-(cyclopentyloxy)-5-(4-methoxyphenyl)-7H-pyrrolo[2,3-d]pyrimidin-2-ylamino)-3-methoxy-N-methylbenzamide] | < 100
25 | CNC(=O)c1ccc(Nc2nc(OC3CCCC3)c3c(-c4ccc(C#N)cc4)c[nH]c3n2)c(OC)c1 [Example 77, 4-(5-(4-cyanophenyl)-4-(cyclopentyloxy)-7H-pyrrolo[2,3-d]pyrimidin-2-ylamino)-3-methoxy-N-methylbenzamide] | 1000 to 10000
26 | CNC(=O)c1ccc(Nc2nc(OC3CCCC3)c3c(-c4ccc5c(ccn5C)c4)c[nH]c3n2)c(OC)c1 [Example 78, 4-(4-(cyclopentyloxy)-5-(1-methyl-1H-indol-5-yl)-7H-pyrrolo[2,3-d]pyrimidin-2-ylamino)-3-methoxy-N-methylbenzamide] | 1000 to 10000
27 | CNC(=O)c1ccc(Nc2nc(OC3CCCC3)c3c(-c4cc[nH]n4)c[nH]c3n2)c(OC)c1 [Example 80, 4-(4-(cyclopentyloxy)-5-(1H-pyrazol-3-yl)-7H-pyrrolo[2,3-d]pyrimidin-2-ylamino)-3-methoxy-N-methylbenzamide] | < 100
28 | CNC(=O)c1ccc(Nc2nc(OC3CCCC3)c3c(-c4ccc5[nH]ccc5c4)c[nH]c3n2)c(OC)c1 [Example 81, 4-(4-(cyclopentyloxy)-5-(1H-indol-5-yl)-7H-pyrrolo[2,3-d]pyrimidin-2-ylamino)-3-methoxy-N-methylbenzamide] | 400 to 1000
29 | CNC(=O)c1ccc(Nc2nc(OC3CCCC3)c3c(-c4cn[nH]c4)c[nH]c3n2)c(OC)c1 [Example 82, 4-(4-(cyclopentyloxy)-5-(1H-pyrazol-4-yl)-7H-pyrrolo[2,3-d]pyrimidin-2-ylamino)-3-methoxy-N-methylbenzamide] | < 100
30 | COc1nc(Nc2ccc(C(=O)N(C)C)cc2Cl)nc2[nH]cc(-c3ccc4[nH]c(C)nc4c3)c12 [Example 83, 3-chloro-4-(4-methoxy-5-(2-methyl-1H-benzo[d]imidazol-5-yl)-7H-pyrrolo[2,3-d]pyrimidin-2-ylamino)-N,N-dimethylbenzamide] | < 100
